# Assays:
# Assay in all cases: Test E postemergence
# Assay type in all cases: in vivo
# Conditions in all cases: scale 0 to 100
# [1] = test system: barnyardgrass (Echinochloa crus-galli)
# Source text: (§1) Seeds of plant species selected from corn (Zea mays), soybean (Glycine max), velvetleaf (Abutilon theophrasti), cocklebur (common cocklebur, Xanthium strumarium), lambsquarters (Chenopodium album), wild poinsettia (Euphorbia heterophylla), palmer pigweed (Amaranthus palmeri), waterhemp (common waterhemp, Amaranthus rudis), surinam grass (Brachiaria decumbens), large (Lg) crabgrass (Digitaria sanguinalis), Brazilian crabgrass (Digitaria horizontalis), fall panicum (Panicum dichotomiflorum), giant foxtail (Setaria faberii), green foxtail (Setaria viridis), goosegrass (Eleusine indica), johnsongrass (Sorghum halepense), ragweed (common ragweed, Ambrosia elatior), barnyardgrass (Echinochloa crus-galli), sandbur (southern sandbur, Cenchrus echinatus), arrowleaf sida (Sida rhombifolia), Italian ryegrass (Lolium multiflorum), dayflower (Virginia (VA) dayflower, Commelina virginica), field bindweed (Convolvulus arvensis), morningglory (Ipomoea coccinea), nightshade (eastern black nightshade, Solanum ptycanthum), kochia (Kochia scoparia), yellow nutsedge (Cyperus esculentus), horseweed (Conyza canadensis), and hairy beggarticks (Bidens pilosa), were planted into a silt loam soil and treated preemergence with test chemicals formulated in a non-phytotoxic solvent mixture which included a surfactant.
# (§2) At the same time, plants from these crop and weed species and also waterhemp_RES1, (ALS & Triazine resistant common waterhemp, Amaranthus rudis), and waterhemp_RES2, (ALS & HPPD resistant common waterhemp, Amaranthus rudis) were planted in pots containing Redi-Earth® planting medium (Scotts Company, 14111 Scottslawn Road, Marysville, Ohio 43041) comprising spaghnum peat moss, vermiculite, wetting agent and starter nutrients were treated with postemergence applications of test chemicals formulated in the same manner. Plants ranged in height from 2 to 18 cm for postemergence treatments (1- to 4-leaf stage). Treated plants and controls were maintained in a greenhouse for 14 to 21 days, after which time all species were compared to controls and visually evaluated. Plant response ratings, summarized in Table E, are based on a scale of 0 to 100 where 0 is no effect and 100 is complete control. A dash (-) response means no test result.
# [2] = test system: Italian ryegrass (Lolium multiflorum)
# Source text: as §1, §2
# [3] = test system: arrowleaf sida (Sida rhombifolia)
# Source text: as §1, §2
# [4] = test system: fall panicum (Panicum dichotomiflorum)
# Source text: as §1, §2
# [5] = test system: kochia (Kochia scoparia)
# Source text: as §1, §2
# [6] = test system: soybean (Glycine max)
# Source text: as §1, §2
# [7] = test system: horseweed (Conyza canadensis)
# Source text: as §1, §2
# [8] = test system: palmer pigweed (Amaranthus palmeri)
# Source text: as §1, §2
# [9] = test system: waterhemp_RES1 (ALS & Triazine resistant common waterhemp, Amaranthus rudis)
# Source text: as §1, §2
# [10] = test system: corn (Zea mays)
# Source text: as §1, §2
# [11] = test system: sandbur (southern sandbur, Cenchrus echinatus)
# Source text: as §1, §2
# [12] = test system: dayflower (Virginia (VA) dayflower, Commelina virginica)
# Source text: as §1, §2
# [13] = test system: waterhemp_RES2 (ALS & HPPD resistant common waterhemp, Amaranthus rudis)
# Source text: as §1, §2
# [14] = test system: waterhemp (common waterhemp, Amaranthus rudis)
# Source text: as §1, §2
# [15] = test system: wild poinsettia (Euphorbia heterophylla)
# Source text: as §1, §2
# [16] = test system: hairy beggarticks (Bidens pilosa)
# Source text: as §1, §2
# [17] = test system: field bindweed (Convolvulus arvensis)
# Source text: as §1, §2
compound,measurement,setting,value
N#Cc1cccc(Oc2ncc(Cl)cn2)c1Oc1ccc(Cl)cc1 [Compound 36],"Plant response rating, Barnyardgrass",[1]; 16 g ai/ha,20
same,"Plant response rating, Barnyardgrass",[1]; 31 g ai/ha,25
same,"Plant response rating, Barnyardgrass",[1]; 62 g ai/ha,30
same,"Plant response rating, Barnyardgrass",[1]; 125 g ai/ha,50
same,"Plant response rating, Ryegrass, Italian",[2]; 16 g ai/ha,10
same,"Plant response rating, Ryegrass, Italian",[2]; 31 g ai/ha,15
same,"Plant response rating, Ryegrass, Italian",[2]; 62 g ai/ha,10
same,"Plant response rating, Ryegrass, Italian",[2]; 125 g ai/ha,30
same,"Plant response rating, Arrowleaf Sida",[3]; 16 g ai/ha,70
same,"Plant response rating, Arrowleaf Sida",[3]; 31 g ai/ha,70
same,"Plant response rating, Arrowleaf Sida",[3]; 62 g ai/ha,80
same,"Plant response rating, Arrowleaf Sida",[3]; 125 g ai/ha,85
same,"Plant response rating, Panicum, Fall",[4]; 16 g ai/ha,20
same,"Plant response rating, Panicum, Fall",[4]; 31 g ai/ha,25
same,"Plant response rating, Panicum, Fall",[4]; 62 g ai/ha,15
same,"Plant response rating, Panicum, Fall",[4]; 125 g ai/ha,25
same,"Plant response rating, Kochia",[5]; 16 g ai/ha,90
same,"Plant response rating, Kochia",[5]; 31 g ai/ha,95
same,"Plant response rating, Kochia",[5]; 62 g ai/ha,100
same,"Plant response rating, Kochia",[5]; 125 g ai/ha,95
same,"Plant response rating, Soybean",[6]; 16 g ai/ha,60
same,"Plant response rating, Soybean",[6]; 31 g ai/ha,50
same,"Plant response rating, Soybean",[6]; 62 g ai/ha,70
same,"Plant response rating, Soybean",[6]; 125 g ai/ha,50
same,"Plant response rating, Horseweed",[7]; 16 g ai/ha,0
same,"Plant response rating, Horseweed",[7]; 31 g ai/ha,0
same,"Plant response rating, Horseweed",[7]; 62 g ai/ha,5
same,"Plant response rating, Horseweed",[7]; 125 g ai/ha,10
same,"Plant response rating, Pigweed, Palmer",[8]; 16 g ai/ha,75
same,"Plant response rating, Pigweed, Palmer",[8]; 31 g ai/ha,85
same,"Plant response rating, Pigweed, Palmer",[8]; 62 g ai/ha,85
same,"Plant response rating, Pigweed, Palmer",[8]; 125 g ai/ha,85
same,"Plant response rating, Waterhemp_RES1",[9]; 16 g ai/ha,98
same,"Plant response rating, Waterhemp_RES1",[9]; 31 g ai/ha,95
same,"Plant response rating, Waterhemp_RES1",[9]; 62 g ai/ha,95
same,"Plant response rating, Waterhemp_RES1",[9]; 125 g ai/ha,100
same,"Plant response rating, Corn",[10]; 16 g ai/ha,10
same,"Plant response rating, Corn",[10]; 31 g ai/ha,20
same,"Plant response rating, Corn",[10]; 62 g ai/ha,20
same,"Plant response rating, Corn",[10]; 125 g ai/ha,25
same,"Plant response rating, Sandbur",[11]; 16 g ai/ha,10
same,"Plant response rating, Sandbur",[11]; 31 g ai/ha,20
same,"Plant response rating, Sandbur",[11]; 62 g ai/ha,20
same,"Plant response rating, Sandbur",[11]; 125 g ai/ha,25
same,"Plant response rating, Dayflower, VA",[12]; 16 g ai/ha,20
same,"Plant response rating, Dayflower, VA",[12]; 31 g ai/ha,50
same,"Plant response rating, Dayflower, VA",[12]; 62 g ai/ha,60
same,"Plant response rating, Dayflower, VA",[12]; 125 g ai/ha,70
same,"Plant response rating, Waterhemp_RES2",[13]; 16 g ai/ha,60
same,"Plant response rating, Waterhemp_RES2",[13]; 31 g ai/ha,90
same,"Plant response rating, Waterhemp_RES2",[13]; 62 g ai/ha,80
same,"Plant response rating, Waterhemp_RES2",[13]; 125 g ai/ha,90
same,"Plant response rating, Waterhemp",[14]; 16 g ai/ha,95
same,"Plant response rating, Waterhemp",[14]; 31 g ai/ha,90
same,"Plant response rating, Waterhemp",[14]; 62 g ai/ha,95
same,"Plant response rating, Waterhemp",[14]; 125 g ai/ha,95
same,"Plant response rating, Poinsettia, Wild",[15]; 16 g ai/ha,50
same,"Plant response rating, Poinsettia, Wild",[15]; 31 g ai/ha,60
same,"Plant response rating, Poinsettia, Wild",[15]; 62 g ai/ha,70
same,"Plant response rating, Poinsettia, Wild",[15]; 125 g ai/ha,90
same,"Plant response rating, Beggarticks",[16]; 16 g ai/ha,30
same,"Plant response rating, Beggarticks",[16]; 31 g ai/ha,35
same,"Plant response rating, Beggarticks",[16]; 62 g ai/ha,30
same,"Plant response rating, Beggarticks",[16]; 125 g ai/ha,40
same,"Plant response rating, Field Bindweed",[17]; 16 g ai/ha,40
same,"Plant response rating, Field Bindweed",[17]; 31 g ai/ha,50
same,"Plant response rating, Field Bindweed",[17]; 62 g ai/ha,65
same,"Plant response rating, Field Bindweed",[17]; 125 g ai/ha,85

# Reference: US20170190671A1, “BIS(ARYL)CATECHOL DERIVATIVES AS HERBICIDES” (E I DU PONT DE NEMOURS AND COMPANY, priority 2014, published 2017)
